The values below come from patent US20230165874A1, “ANTICOAGULANT COMPOUNDS AND METHODS AND DEVICES FOR THEIR PULMONARY USE” (priority 2020, published 2023).

≈ marks a conversion by molar mass, not a printed value. Where a name gives a salt, the structure may show the parent alone.

Data set [1] can be described thus: in vivo. The following applies: male, Sprague-Dawley, rat; for Tmax: inhaled or intranasal. Further details: species or system Sprague-Dawley rats. On the procedure:
At their assigned time-point, rats were anesthetized and subjected to exsanguination via an abdominal vessel and gross necropsy. Whole blood (two ˜1.5 ml aliquots, K2EDTA) was collected. The whole blood was stored frozen at −60° C. or lower until shipped overnight with dry ice for further evaluation.
Whole blood (two ˜100 μL aliquots, K2EDTA) was collected from the catheter of conscious rats for systemic pharmacokinetics (PK) at the time-points. Whole blood samples were stored at −60° C. or lower until shipped overnight on dry ice for further evaluation.

On the set-up of data set [2]: species or system Sprague-Dawley rats. The following applies: male, Sprague-Dawley, rat, in vivo. The protocol: The lungs were removed and divided into left and right lung. Each half of the lung was weighed and placed in separate vials (for Pharmacokinetics analysis), snap frozen in liquid nitrogen and stored frozen at −60° C. or lower until shipped overnight on dry ice for further evaluation.
Each half of the lung was weighed and placed in separate vials (for Pharmacokinetics analysis), snap frozen in liquid nitrogen and stored frozen at −60° C. or lower until shipped overnight on dry ice to the sponsor for further evaluation.

Data set [3] is described as follows: Coated balloon tissue drug concentration in vivo (LCMS). Further details: species or system porcine. The following applies: pig, 300 μg. The text has this:
The balloon (e.g., the balloon of a balloon-catheter of a stent-delivery system) was advanced to a site to be treated (e.g., an occluded or weakened section of a blood vessel to be opened up or supported by a stent) in the body of a subject and inflated to a desired inflation diameter. Before, during, and/or after inflation of the balloon, the balloon released the therapeutic composition to, into, or at the treatment site, or to, into, or at an area adjacent thereto, by any suitable mechanism (e.g., concentration gradient, diffusion, pressure, or mechanical force, or a combination thereof). […] The tissue concentration is shown in ng/mg tissue. The coated balloons were evaluated for drug delivery efficiency in an animal study. Drug transfer of the coated balloons into arterial segments were evaluated using harvested pig arteries. The arterial wall was separated after animal study. The arterial walls were then stored in an individual labeled vial. All samples were kept on dry ice until stored in the −80° C. freezer. All samples were then frozen to […] prior to being analyzed.

A short description of data set [4]: in vivo. The following applies: pig, whole blood.
The nature of data set [5]: Whole blood PK of drug eluting stents. The following applies: for concentration at 180 min: 180 min. (3 hr); for concentration at 60 min: 60 min. (1 hr); for concentration at 120 min: 120 min. (2 hr).
The subject of data set [6] is porcine coronary artery. Put plainly: Histopathology scores (fibrin, injury, inflammation) of stented porcine coronary arteries. Particulars: for inhibiting fibrin formation compared to bare metal control stents: at 7 days, released from stents.
Data set [7] deals with porcine coronary artery. Nature of the data set: Quantitative coronary angiography (late lumen loss, diameter stenosis) after stent implantation. Particulars: at 7 days, released from stents.
Data set [8] concerns Calcium-reconstituted sheep blood. Nature of the data set: Activated clotting time (ACT), Hemochron Response. The class given is biochemical. The following applies: individual drug at 0.6 ng/mg. On the procedure:
The activated clotting time (ACT) evaluation of anticoagulants was performed in Calcium-reconstituted sheep blood and recorded employing the Hemochron® Response device. […] A target amount of drug solution was then added into the test tube. […] The tube was gently shaken before being inserted into the Hemochron Response detector. The ACT read out was recorded and reported. The ACT of the control blood in the absence of any drug as first determined to establish a baseline. Then ACT was determined in the presence of different concentrations of the drug as a single component. Selected drug combinations, were then tested to evaluate for potential synergy in action between the two drugs.

Data set [9] can be described thus: Solubility in water / aqueous buffer / Captisol.
Data set [10] can be described thus: physchem.
Where [11] appears, read: pig, whole blood, other: drug eluting stent implanted in coronary artery, Whole blood concentration, SS16 stents, 1 H group.
[12] abbreviates: pig, whole blood, other: drug eluting stents implanted in coronary arteries, Whole blood concentration, SS16 stents, 1 D group.
Where [13] appears, read: pig, whole blood, other: drug eluting stents implanted in coronary arteries, Whole blood concentration, SS17 stents, 1 D group.
Where [14] appears, read: pig, whole blood, other: drug eluting stents implanted in coronary arteries, Whole blood concentration, SS17 stents, 1 H group.

For the compound `CN1CCCC(n2nc(Cc3ccc(Cl)cc3)c3ccccc3c2=O)CC1` (centres unmarked) [Azelastine, Azelastine hydrochloride], in data set [1], the “time the systemic drug in whole blood lasted” value is listed as “up to 2 hours”. Further, in data set [2], the “time the drug content in lungs tissue lasted” value is reported as “more than 5 hours”.
As to `O=C(NC[C@H]1CN(c2ccc(N3CCOCC3=O)cc2)C(=O)O1)c1ccc(Cl)s1` [Rivaroxaban], the concentration at 15 min in data set [3] (coronary artery wall) came out at 1230 ± 370 ng/g; in data set [3] (superficial femoral artery wall), 40600 ± 64700 ng/g; in [4] (other: drug eluting stent implanted in coronary artery), 3.32 ng/mL; in data set [5] (setting [13]) it was 24 ng/mL; in data set [5] (setting [14]), 10.8 ng/mL. The concentration at 150 min in data set [4] (other: drug eluting stents implanted in coronary arteries) is 2.08 ng/mL; in data set [5] (pig, whole blood, other: drug eluting stents implanted in coronary arteries, Whole blood concentration, SS17 stents, 1 D group, 150 min.) it was 11.3 ng/mL. The Whole blood concentration entry was “BQL” in data set [5] (SS16 stents, 1 D group, 24 hr (Day 1)); “BQL” in [5] (SS16 stents, 1 D group, Pre-implant); “BQL” in data set [5] (SS16 stents, 1 H group, Pre-implant); “BQL” in data set [5] (SS16 stents, 7 D group, Day 7); “BQL” in data set [5] (SS16 stents, 7 D group, Pre-implant); “BQL” in data set [5] (SS16 stents, 28 D group, Day 28). Moreover, the Whole blood concentration result in data set [5] (SS16 stents, 28 D group, Pre-implant) was “BQL”; in [5] (SS17 stents, 1 D group, Pre-implant), “BQL”; in data set [5] (SS17 stents, 1 H group, Pre-implant), “BQL”; in data set [5] (SS17 stents, 7 D group, Day 7), “BQL”; in data set [5] (SS17 stents, 7 D group, Pre-implant), “BQL”; in data set [5] (SS17 stents, 28 D group, Day 28), “BQL”. Further, in data set [5] (SS17 stents, 28 D group, Pre-implant), the Whole blood concentration result is given as “BQL”. Moreover, in [5] (drug eluting stents SS15, SS16, SS17), the “systemic blood concentration versus systemic therapeutic concentrations (Cmax, Cmean, Ctrough)” value is recorded as “below”. The concentration at 30 min in data set [5] (pig, whole blood, other: drug eluting stent implanted in coronary artery, Whole blood concentration, SS16 stents, 1 D group) amounted to 3.76 ng/mL; in data set [5] (setting [11]), 3.34 ng/mL; in data set [5] (setting [13]), 20.1 ng/mL; in [5] (setting [14]) it was 8.44 ng/mL. In addition, the concentration at 45 min in data set [5] (setting [11]) came to 3.68 ng/mL; in data set [5] (setting [12]), 3.47 ng/mL; in [5] (setting [13]), 19.5 ng/mL; in [5] (setting [14]) it was 7.82 ng/mL. Besides, the concentration at 180 min in data set [5] (pig, whole blood, other: drug eluting stent implanted in coronary artery, Whole blood concentration, SS17 stents, 1 D group) was found to be 8.39 ng/mL; in data set [5] (setting [12]), 1.95 ng/mL. Also, the concentration at 4 h in data set [5] (pig, whole blood, other: drug eluting stent implanted in coronary artery, Whole blood concentration, SS17 stents, 1 D group, 4 hr) was 3.74 ng/mL. Besides, in data set [5] (pig, whole blood, other: drug eluting stent implanted in coronary artery, Whole blood concentration, SS17 stents, 1 D group, 5 hr), the concentration at 5 h turned out to be 3.9 ng/mL. The concentration at 6 h in [5] (pig, whole blood, other: drug eluting stent implanted in coronary artery, Whole blood concentration, SS17 stents, 1 D group, 6 hr) was 3.1 ng/mL. For the same compound, the concentration at 24 h in data set [5] (pig, whole blood, other: drug eluting stent implanted in coronary artery, Whole blood concentration, SS17 stents, 1 D group, 24 hr (Day 1)) came to 0.16 ng/mL. Also, the concentration at 60 min came out at 2.61 ng/mL in data set [5] (setting [12]); 4.08 ng/mL in data set [5] (pig, whole blood, other: drug eluting stents implanted in coronary arteries, Whole blood concentration, SS16 stents, 1 H group); 18.5 ng/mL in data set [5] (setting [13]); 7.54 ng/mL in data set [5] (setting [14]). Further, the values for the concentration at 90 min in [5] (setting [12]) and in [5] (setting [13]) were 2.43 ng/mL and 15 ng/mL, respectively. Besides, the figures for the concentration at 120 min in data set [5] (setting [12]) and in data set [5] (setting [13]) were 2.3 ng/mL and 11.6 ng/mL, respectively. In data set [5] (pig, whole blood, other: drug eluting stents implanted in coronary arteries, Whole blood concentration, SS16 stents, 1 D group, 4 hr), this compound displayed a concentration at 4 hr of 1.23 ng/mL. This compound also had a concentration at 5 hr in data set [5] (pig, whole blood, other: drug eluting stents implanted in coronary arteries, Whole blood concentration, SS16 stents, 1 D group, 5 hr) of 1.11 ng/mL. The concentration at 6 hr in data set [5] (pig, whole blood, other: drug eluting stents implanted in coronary arteries, Whole blood concentration, SS16 stents, 1 D group, 6 hr) was 1.03 ng/mL. Further, the “inhibiting fibrin formation compared to control” value in data set [6] (at 7 days and/or at 28 days, faster release formulation) is reported as “more effective”. In data set [6], the “inhibiting fibrin formation compared to bare metal control stents” value was “more effective”. For the same compound, the “inhibiting smooth muscle cell proliferation (LLL) compared to bare metal control stents” value in data set [7] was “not more effective”.
The term Tmax denotes the time at which the peak concentration occurs. The term solubility denotes the concentration that dissolves in the medium under given conditions. A high value points to much dissolved substance. Regarding `COc1ccc(-n2nc(C(N)=O)c3c2C(=O)N(c2ccc(N4CCCCC4=O)cc2)CC3)cc1` [Apixaban], the ACT in data set [8] is 522. The Tmax in [1] was in the range of 5 to 10 min. For the same compound, the “time the drug content in lung tissue lasted” value in data set [2] is reported as “up to 3.5 hours”. The “time the drug content in lungs tissue lasted” value in data set [2] is given as “up to 1 hours”. For the same compound, the solubility was approximately 28 µg/mL (≈ 60.9 µM) in [9] (aqueous buffer, solubility in aqueous buffers, drug alone) and approximately 28 µg/mL (≈ 60.9 µM) in data set [9] (water, solubility in water).
For `CCN(CCO)CCCC(C)Nc1ccnc2cc(Cl)ccc12` (centres unmarked) [Hydroxychloroquine, Hydroxychloroquine sulfate], the “time the systemic drug in whole blood lasted” value in data set [1] is recorded as “more than 5 hours”. For the same compound, the “time the drug content in lungs tissue lasted” value in data set [2] was “more than 5 hours”.
Take Dalteparin: in data set [6], the “inhibiting fibrin formation compared to bare metal control stents” value was “not more effective”. The “inhibiting smooth muscle cell proliferation (LLL) compared to bare metal control stents” value in data set [7] is recorded as “not more effective”.
`CC1CNc2c(cccc2S(=O)(=O)N[C@@H](CCCNC(=N)N)C(=O)N2CC[C@@H](C)C[C@@H]2C(=O)O)C1` (some centres unmarked) [Argatroban]: the ACT in data set [8] was 301. The time of peak concentration (Tmax) in data set [1] is approximately 60 min. For the same compound, in data set [2], the “time the drug content in lung tissue lasted” value was “more than 6 hours”. Moreover, the “time the drug content in lungs tissue lasted” value in [2] was “more than 5 hours”. Further, the solubility in data set [10] (aqueous buffer, solubility in aqueous buffers) was approximately 3000 µg/mL (≈ 5900 µM); in data set [10] (water, solubility in water), approximately 3000 µg/mL (≈ 5900 µM). In data set [6], the “inhibiting fibrin formation compared to bare metal control stents” value was “not more effective”.
